Assays:
[1] = tested on: myc; assay: Western blot of myc after c-myc siRNA delivery in 4188 cells; type: cell-based
Experimental: Typical incubations were carried out by incubating 4188 cells with the NT conjugates for periods ranging from 12-14 h at 37° C. and 5% CO2 atmosphere. In addition to our positive incubation with our disulfide containing conjugate, SWNT-SS-siRNAmyc (typical [NT} ≈20 nM and [siRNA] ≈500 nM in incubation), control incubations were also carried out with DOX at a concentration 2 ng/mL, commercially available transfecting agent lipofectamine-myc complex and finally with a mixture of SWNT suspension and myc siRNA solution.
The proliferation of the cells was also examined by the use of a colorimetric MTS-based assay. […] In order to verify that the decrease in cell viability and proliferation was in fact a result of the knockdown of myc in the lymphoma cells, western blots were performed on the respective cellysates. The myc band was absent for the SWNT-SS-siRNAmyc and DOX treated cell.

[2] = tested on: 4188 cells; assay: Cell density, cell death and proliferation of lymphoma cells after c-myc siRNA delivery; type: cell-based, mice; conditions: approximately 24 h treatment, light microscopy
Experimental: These conjugates were used to treat T-cell lymphoma cells, 4188 cells, which were derived from mice overexpressing human myc. Control experiments were also performed where the 4188 cells were exposed to a mixture of SWNT and siRNAmyc (no covalent linkage), to lipofectamine-siRNAmyc complex or to the antibiotic doxicycline (DOX). The 4188 cells used in this experiment had been previously engineered to be tet-regulatable such that the myc gene can be turned off by treatment with DOX.
The 4188 cells are non-adherent cells, typically cultured in RPMI 1640 medium supplemented with fetal bovine serum, penicillin/streptomycin and betamercaptoethanol. The cells were engineered to have tet-regulatable MYC, which can be regulated by the antibiotic doxicycline (DOX). 4188 cells are further described at Jain, M. et al. Sustained loss of a neoplastic phenotype by brief inactivation of MYC. Science 297, 102-104 (2002). […]
The cell proliferation was determined by using the CellTiterA96 assay (Promega). […]
Cell death was monitored in the cells by cell cytometry. […]

With C[C@H]1c2cccc(O)c2C(O)=C2C(=O)[C@]3(O)C(O)=C(C(N)=O)C(=O)[C@@H](N(C)C)[C@@H]3[C@@H](O)[C@@H]21 [DOX, doxicycline] the “myc band in western blot” value [1] was “absent” and the cell density [2] was “some reduction in the cell density”.

Source: US8795734B2, “Hydrophobic nanotubes and nanoparticles as transporters for the delivery of drugs into cells” (The Board of Trustees of the Leland Stanford Junior …, priority 2005, dated 2014)
